Reference: the NIST ThermoML archive (doi:10.1016/j.jct.2016.10.024)

Test: mn = molality of the nth substance listed, in mol/kg
Settings: 75 kPa, Liquid, Buoyancy - hydrostatic balance with magnetic suspension - one sinker

CCCC(N)=O [butanamide] + O
Settings | mass density [kg/m3]
275.66 K, m1 = 0.1003 | 1000.06
275.66 K, m1 = 0.1971 | 1000.2
275.66 K, m1 = 0.301 | 1000.37
275.66 K, m1 = 0.4013 | 1000.56
275.66 K, m1 = 0.4955 | 1000.75
275.66 K, m1 = 0.6013 | 1000.97
275.66 K, m1 = 0.695 | 1001.2
275.66 K, m1 = 0.8012 | 1001.46
276.14 K, m1 = 0.1021 | 1000.06
276.14 K, m1 = 0.1961 | 1000.2
276.14 K, m1 = 0.2967 | 1000.37
276.14 K, m1 = 0.4955 | 1000.75
276.14 K, m1 = 0.6013 | 1000.96
276.14 K, m1 = 0.6982 | 1001.18
276.14 K, m1 = 0.8012 | 1001.42
276.14 K, m1 = 0.9855 | 1001.87
276.61 K, m1 = 0.1009 | 1000.05
276.61 K, m1 = 0.1973 | 1000.18
276.61 K, m1 = 0.2967 | 1000.33
276.61 K, m1 = 0.4013 | 1000.51
276.61 K, m1 = 0.5977 | 1000.89
276.61 K, m1 = 0.7003 | 1001.11
276.61 K, m1 = 0.8012 | 1001.35
276.61 K, m1 = 0.9976 | 1001.83
277.15 K, m1 = 0.1021 | 1000.09
277.15 K, m1 = 0.1961 | 1000.21
277.15 K, m1 = 0.2967 | 1000.35
277.15 K, m1 = 0.4955 | 1000.69
277.15 K, m1 = 0.6013 | 1000.9
277.15 K, m1 = 0.6982 | 1001.13
277.15 K, m1 = 0.8012 | 1001.4
277.15 K, m1 = 0.9855 | 1001.94
277.61 K, m1 = 0.1009 | 1000.08
277.61 K, m1 = 0.1973 | 1000.21
277.61 K, m1 = 0.2967 | 1000.36
277.61 K, m1 = 0.4013 | 1000.53
277.61 K, m1 = 0.5977 | 1000.89
277.61 K, m1 = 0.7003 | 1001.1
277.61 K, m1 = 0.8024 | 1001.32
277.61 K, m1 = 0.9976 | 1001.77
278.12 K, m1 = 0.1076 | 1000.07
278.12 K, m1 = 0.1971 | 1000.19
278.12 K, m1 = 0.3283 | 1000.38
278.12 K, m1 = 0.4191 | 1000.51
278.12 K, m1 = 0.5074 | 1000.65
278.12 K, m1 = 0.6233 | 1000.85
278.12 K, m1 = 0.7379 | 1001.04
278.12 K, m1 = 0.8761 | 1001.28
278.68 K, m1 = 0.1003 | 1000.05
278.68 K, m1 = 0.1971 | 1000.17
278.68 K, m1 = 0.301 | 1000.31
278.68 K, m1 = 0.4013 | 1000.46
278.68 K, m1 = 0.4955 | 1000.62
278.68 K, m1 = 0.6013 | 1000.81
278.68 K, m1 = 0.695 | 1001
278.68 K, m1 = 0.8012 | 1001.23

CC(N)=O [ethanamide] + O
Settings | mass density [kg/m3]
275.66 K, m1 = 0.102 | 1000.47
275.66 K, m1 = 0.2015 | 1000.96
275.66 K, m1 = 0.2995 | 1001.42
275.66 K, m1 = 0.4032 | 1001.9
275.66 K, m1 = 0.4848 | 1002.29
275.66 K, m1 = 0.5945 | 1002.81
275.66 K, m1 = 0.6875 | 1003.24
275.66 K, m1 = 0.7747 | 1003.64
276.14 K, m1 = 0.09682 | 1000.43
276.14 K, m1 = 0.2023 | 1000.93
276.14 K, m1 = 0.3049 | 1001.42
276.14 K, m1 = 0.4077 | 1001.91
276.14 K, m1 = 0.5003 | 1002.35
276.14 K, m1 = 0.6016 | 1002.82
276.14 K, m1 = 0.7037 | 1003.3
276.14 K, m1 = 0.8092 | 1003.79
276.61 K, m1 = 0.1016 | 1000.37
276.61 K, m1 = 0.1972 | 1000.9
276.61 K, m1 = 0.299 | 1001.39
276.61 K, m1 = 0.4078 | 1001.9
276.61 K, m1 = 0.4957 | 1002.32
276.61 K, m1 = 0.6048 | 1002.83
276.61 K, m1 = 0.6858 | 1003.21
276.61 K, m1 = 0.8092 | 1003.78
277.15 K, m1 = 0.09682 | 1000.43
277.15 K, m1 = 0.2023 | 1000.93
277.15 K, m1 = 0.3049 | 1001.41
277.15 K, m1 = 0.4077 | 1001.88
277.15 K, m1 = 0.5003 | 1002.32
277.15 K, m1 = 0.6016 | 1002.8
277.15 K, m1 = 0.7037 | 1003.28
277.15 K, m1 = 0.8092 | 1003.77
277.61 K, m1 = 0.1016 | 1000.45
277.61 K, m1 = 0.1972 | 1000.91
277.61 K, m1 = 0.299 | 1001.38
277.61 K, m1 = 0.4078 | 1001.89
277.61 K, m1 = 0.4957 | 1002.29
277.61 K, m1 = 0.6048 | 1002.79
277.61 K, m1 = 0.6858 | 1003.16
277.61 K, m1 = 0.8092 | 1003.73
278.12 K, m1 = 0.1016 | 1000.43
278.12 K, m1 = 0.1972 | 1000.88
278.12 K, m1 = 0.299 | 1001.35
278.12 K, m1 = 0.4078 | 1001.85
278.12 K, m1 = 0.4957 | 1002.27
278.12 K, m1 = 0.6048 | 1002.77
278.12 K, m1 = 0.6858 | 1003.15
278.12 K, m1 = 0.8092 | 1003.73
278.68 K, m1 = 0.102 | 1000.43
278.68 K, m1 = 0.2015 | 1000.9
278.68 K, m1 = 0.2995 | 1001.36
278.68 K, m1 = 0.4032 | 1001.83
278.68 K, m1 = 0.4848 | 1002.21
278.68 K, m1 = 0.5945 | 1002.7
278.68 K, m1 = 0.6875 | 1003.12
278.68 K, m1 = 0.7747 | 1003.51

CCC(N)=O [propanamide] + O
Settings | mass density [kg/m3]
275.66 K, m1 = 0.09705 | 1000.26
275.66 K, m1 = 0.18 | 1000.53
275.66 K, m1 = 0.2822 | 1000.89
275.66 K, m1 = 0.3869 | 1001.24
275.66 K, m1 = 0.4939 | 1001.62
275.66 K, m1 = 0.5946 | 1002
275.66 K, m1 = 0.702 | 1002.4
275.66 K, m1 = 0.8002 | 1002.77
276.14 K, m1 = 0.1006 | 1000.29
276.14 K, m1 = 0.1957 | 1000.6
276.14 K, m1 = 0.2937 | 1000.93
276.14 K, m1 = 0.3933 | 1001.26
276.14 K, m1 = 0.4953 | 1001.62
276.14 K, m1 = 0.59 | 1001.96
276.14 K, m1 = 0.7073 | 1002.39
276.14 K, m1 = 0.799 | 1002.72
276.61 K, m1 = 0.09735 | 1000.27
276.61 K, m1 = 0.2018 | 1000.61
276.61 K, m1 = 0.3001 | 1000.94
276.61 K, m1 = 0.3875 | 1001.23
276.61 K, m1 = 0.4999 | 1001.62
276.61 K, m1 = 0.5929 | 1001.94
276.61 K, m1 = 0.702 | 1002.32
276.61 K, m1 = 0.7924 | 1002.63
277.15 K, m1 = 0.1006 | 1000.29
277.15 K, m1 = 0.1957 | 1000.61
277.15 K, m1 = 0.2937 | 1000.93
277.15 K, m1 = 0.3933 | 1001.27
277.15 K, m1 = 0.4953 | 1001.61
277.15 K, m1 = 0.59 | 1001.93
277.15 K, m1 = 0.7073 | 1002.35
277.15 K, m1 = 0.799 | 1002.67
277.61 K, m1 = 0.09735 | 1000.28
277.61 K, m1 = 0.2018 | 1000.61
277.61 K, m1 = 0.3001 | 1000.92
277.61 K, m1 = 0.3875 | 1001.21
277.61 K, m1 = 0.4999 | 1001.59
277.61 K, m1 = 0.5929 | 1001.9
277.61 K, m1 = 0.694 | 1002.23
277.61 K, m1 = 0.8027 | 1002.59
278.12 K, m1 = 0.09735 | 1000.28
278.12 K, m1 = 0.2018 | 1000.62
278.12 K, m1 = 0.297 | 1000.92
278.12 K, m1 = 0.4495 | 1001.43
278.12 K, m1 = 0.4911 | 1001.58
278.12 K, m1 = 0.5697 | 1001.85
278.12 K, m1 = 0.7087 | 1002.34
278.12 K, m1 = 0.8713 | 1002.91
278.68 K, m1 = 0.09705 | 1000.26
278.68 K, m1 = 0.18 | 1000.51
278.68 K, m1 = 0.2822 | 1000.84
278.68 K, m1 = 0.3869 | 1001.18
278.68 K, m1 = 0.4939 | 1001.53
278.68 K, m1 = 0.5946 | 1001.87
278.68 K, m1 = 0.702 | 1002.24
278.68 K, m1 = 0.8002 | 1002.58
